Reference: PubChem BioAssay AID2060511 (Molecular Pharmacology Branch, DTP, NCI, 2025)

System: 422866-222-R5-J1-PDC spheroids with HUVEC/MSC, viability
Assay: Anticancer human tumor 422866-222-R5-J1-PDC patient-derived pancreatic adenocarcinoma cell line growth inhibition [GQUAD]
Details: for IC50: curve of first compound; for viability, T/C: stronger effect = lower value
Summary of the method: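 Tumor cells were grown as complex spheroids with HUVEC endothelial cells and mesenchymal stem cells as stroma. G-quadruplex stabilizers were combined with targeted agents over half-log dilutions from near the clinical Cmax, or from 10 microM.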

[1] = second compound 0.0316 µM, first compound 0.0316 µM
[2] = second compound 0.0316 µM, first compound 0.1 µM
[3] = second compound 0.0316 µM, first compound 0.316 µM
[4] = second compound 0.0316 µM, first compound 1 µM
[5] = second compound 0.0316 µM, first compound 3.16 µM
[6] = second compound 0.0316 µM, first compound 10 µM
[7] = second compound 0.1 µM, first compound 0.0316 µM
[8] = second compound 0.1 µM, first compound 0.1 µM
[9] = second compound 0.1 µM, first compound 0.316 µM
[10] = second compound 0.1 µM, first compound 1 µM
[11] = second compound 0.1 µM, first compound 3.16 µM
[12] = second compound 0.1 µM, first compound 10 µM
[13] = second compound 0.316 µM, first compound 0.0316 µM
[14] = second compound 0.316 µM, first compound 0.1 µM
[15] = second compound 0.316 µM, first compound 0.316 µM
[16] = second compound 0.316 µM, first compound 1 µM
[17] = second compound 0.316 µM, first compound 3.16 µM
[18] = second compound 0.316 µM, first compound 10 µM
[19] = second compound 1 µM, first compound 0.0316 µM
[20] = second compound 1 µM, first compound 0.1 µM
[21] = second compound 1 µM, first compound 0.316 µM
[22] = second compound 1 µM, first compound 1 µM
[23] = second compound 1 µM, first compound 3.16 µM
[24] = second compound 1 µM, first compound 10 µM
[25] = second compound 3.16 µM, first compound 0.0316 µM
[26] = second compound 3.16 µM, first compound 0.1 µM
[27] = second compound 3.16 µM, first compound 0.316 µM
[28] = second compound 3.16 µM, first compound 1 µM
[29] = second compound 3.16 µM, first compound 3.16 µM
[30] = second compound 3.16 µM, first compound 10 µM
[31] = second compound 10 µM, first compound 0.0316 µM
[32] = second compound 10 µM, first compound 0.1 µM
[33] = second compound 10 µM, first compound 0.316 µM
[34] = second compound 10 µM, first compound 1 µM
[35] = second compound 10 µM, first compound 3.16 µM
[36] = second compound 10 µM, first compound 10 µM
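Also: spheroids exposed to compounds for seven days before reading.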
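For viability, T/C in this document: percent viability relative to DMSO vehicle control taken as 100%.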

With `CC1COCCN1c1cc(C2(S(C)(=N)=O)CC2)nc(-c2ccnc3[nH]ccc23)n1` (stereo unspecified) + Cc1cnc(CNC(=O)c2c(=O)c3ccc(N4CCCN(C)CC4)nc3n3c2sc2ccccc23)cn1 the IC50 (second compound 0.0316 µM) was > 10 µM, the IC50 (second compound 0.1 µM) was > 10 µM and the IC50 (second compound 0.316 µM) was > 10 µM. The IC50 (second compound 1 µM) was > 10 µM, the IC50 (second compound 3.16 µM) was > 10 µM and the IC50 (second compound 10 µM) was > 10 µM. It also gave a viability, T/C [1] of 102%, a viability, T/C [2] of 103% and a viability, T/C [3] of 95.1%. The viability, T/C [4] was 80.8%, the viability, T/C [5] was 71% and the viability, T/C [6] was 50.7%. The viability, T/C [7] was 104%, the viability, T/C [8] was 102% and the viability, T/C [9] was 96.2%. The viability, T/C [10] was 80%, the viability, T/C [11] was 67.7% and the viability, T/C [12] was 53.6%. It also gave a viability, T/C [13] of 91.7%, a viability, T/C [14] of 98.5% and a viability, T/C [15] of 99.5%. For the same compound, the viability, T/C [16] was 96.2%, the viability, T/C [17] was 77.4% and the viability, T/C [18] was 61.2%. It also gave a viability, T/C [19] of 83.2%, a viability, T/C [20] of 92.8% and a viability, T/C [21] of 103%. The viability, T/C [22] was 86.3%, the viability, T/C [23] was 72.8% and the viability, T/C [24] was 77.6%. For the same compound, the viability, T/C [25] was 93.9%, the viability, T/C [26] was 96.6% and the viability, T/C [27] was 90.2%. For the same compound, the viability, T/C [28] was 94.7%, the viability, T/C [29] was 78.1% and the viability, T/C [30] was 71.6%. The viability, T/C [31] was 89.7%, the viability, T/C [32] was 92.3% and the viability, T/C [33] was 93.1%. It also gave a viability, T/C [34] of 87.7%, a viability, T/C [35] of 82% and a viability, T/C [36] of 64.7%.

`Cc1[nH]c2ccccc2c1CCNCc1ccc(/C=C/C(=O)NO)cc1` + CN(C)c1ccc(Nc2c3ccc(NC(=O)CCN4CCCC4)cc3nc3cc(NC(=O)CCN4CCCC4)ccc23)cc1 was tested, and the IC50 (second compound 0.0316 µM) was > 0.316 µM, the IC50 (second compound 0.1 µM) was > 0.316 µM and the IC50 (second compound 0.316 µM) was > 0.316 µM. For the same compound, the IC50 (second compound 1 µM) was > 0.316 µM, the IC50 (second compound 3.16 µM) was > 0.316 µM and the IC50 (second compound 10 µM) was > 0.316 µM. It also gave a viability, T/C (second compound 0.0316 µM, first compound 0.000999 µM) of 118%, a viability, T/C (second compound 0.0316 µM, first compound 0.00316 µM) of 98.7% and a viability, T/C (second compound 0.0316 µM, first compound 0.00999 µM) of 116%. It also gave a viability, T/C [1] of 83.2%, a viability, T/C (second compound 0.0316 µM, first compound 0.0999 µM) of 54.3% and a viability, T/C [3] of 56.8%. For the same compound, the viability, T/C (second compound 0.1 µM, first compound 0.000999 µM) was 98.3%, the viability, T/C (second compound 0.1 µM, first compound 0.00316 µM) was 102% and the viability, T/C (second compound 0.1 µM, first compound 0.00999 µM) was 119%. For the same compound, the viability, T/C [7] was 89.9%, the viability, T/C (second compound 0.1 µM, first compound 0.0999 µM) was 73.5% and the viability, T/C [9] was 61.5%. The viability, T/C (second compound 0.316 µM, first compound 0.000999 µM) was 105%, the viability, T/C (second compound 0.316 µM, first compound 0.00316 µM) was 102% and the viability, T/C (second compound 0.316 µM, first compound 0.00999 µM) was 98.7%. For the same compound, the viability, T/C [13] was 76%, the viability, T/C (second compound 0.316 µM, first compound 0.0999 µM) was 69.4% and the viability, T/C [15] was 57%. For the same compound, the viability, T/C (second compound 1 µM, first compound 0.000999 µM) was 77.3%, the viability, T/C (second compound 1 µM, first compound 0.00316 µM) was 91.9% and the viability, T/C (second compound 1 µM, first compound 0.00999 µM) was 131%. It also gave a viability, T/C [19] of 112%, a viability, T/C (second compound 1 µM, first compound 0.0999 µM) of 63.3% and a viability, T/C [21] of 52%. The viability, T/C (second compound 3.16 µM, first compound 0.000999 µM) was 89.5%, the viability, T/C (second compound 3.16 µM, first compound 0.00316 µM) was 97.3% and the viability, T/C (second compound 3.16 µM, first compound 0.00999 µM) was 102%. The viability, T/C [25] was 103%, the viability, T/C (second compound 3.16 µM, first compound 0.0999 µM) was 80.4% and the viability, T/C [27] was 56.4%. The viability, T/C (second compound 10 µM, first compound 0.000999 µM) was 96%, the viability, T/C (second compound 10 µM, first compound 0.00316 µM) was 95.4% and the viability, T/C (second compound 10 µM, first compound 0.00999 µM) was 98.8%. The viability, T/C [31] was 109%, the viability, T/C (second compound 10 µM, first compound 0.0999 µM) was 75.2% and the viability, T/C [33] was 53.7%.

`CC1COCCN1c1cc(C2(O)CC3CCC(C2)O3)c2cnn(-c3ccn[nH]3)c2n1` (stereo unspecified) + Cc1[nH]c2ccc(F)cc2c1-c1nc2c3cccnc3c3ncccc3c2[nH]1 was tested, and the IC50 (second compound 0.0316 µM) was 0.0316 µM, the IC50 (second compound 0.1 µM) was > 10 µM and the IC50 (second compound 0.316 µM) was > 10 µM. For the same compound, the IC50 (second compound 1 µM) was > 10 µM, the IC50 (second compound 3.16 µM) was < 0.0316 µM and the IC50 (second compound 10 µM) was > 10 µM. The viability, T/C [1] was 74.6%, the viability, T/C [2] was 47.4% and the viability, T/C [3] was 48.1%. For the same compound, the viability, T/C [4] was 48%, the viability, T/C [5] was 87.5% and the viability, T/C [6] was 92%. It also gave a viability, T/C [7] of 73.3%, a viability, T/C [8] of 55.9% and a viability, T/C [9] of 42.1%. It also gave a viability, T/C [10] of 62.2%, a viability, T/C [11] of 88% and a viability, T/C [12] of 90.3%. For the same compound, the viability, T/C [13] was 85.4%, the viability, T/C [14] was 52.6% and the viability, T/C [15] was 37.4%. The viability, T/C [16] was 79.1%, the viability, T/C [17] was 97.1% and the viability, T/C [18] was 109%. It also gave a viability, T/C [19] of 70.4%, a viability, T/C [20] of 39.1% and a viability, T/C [21] of 44.1%. For the same compound, the viability, T/C [22] was 79.9%, the viability, T/C [23] was 98.2% and the viability, T/C [24] was 114%. It also gave a viability, T/C [25] of 51.7%, a viability, T/C [26] of 43.8% and a viability, T/C [27] of 49.8%. It also gave a viability, T/C [28] of 82.9%, a viability, T/C [29] of 90.8% and a viability, T/C [30] of 90.8%. It also gave a viability, T/C [31] of 54.7%, a viability, T/C [32] of 47.8% and a viability, T/C [33] of 51.2%. The viability, T/C [34] was 85.4%, the viability, T/C [35] was 84.5% and the viability, T/C [36] was 90.8%.
